Data taken from patent publication US20150133666A1, “TRITOQUALINE FOR USE IN THE TREATMENT OF CYSTIC FIBROSIS” (priority 2012, published 2015).

Experiments:
histamine H4 receptor = target: T1, histamine H4 receptor (Homo sapiens, UniProt Q9H3N8); test: Inhibition of proliferation of CFU rich in H4 receptor (FIG. 4); assay type: cell-based; conditions: for activity on CFU proliferation when using an anti H4: FIG. 4, with an anti H4
T1 construct: endogenous in cells; host or cells: CFU (colony-forming units) rich in H4 receptor

cystic fibrosis patients = conditions: background statement; cited from earlier work
[1] = white powder; degrades into cotarnine and phthalic acid; cited from earlier work
cystic fibrosis patient [2] = test: Number of lung infections (superinfections) per year in patients with cystic fibrosis treated with tritoqualine; assay type: in vivo, human
Experimental: (§1) This level of ventilatory flow signals a severe respiratory impairment. This patient also had 15 lung infections per year prior to treatment. After 6 months of treatment with tritoqualine at a dose of 200 mg/day, the ventilatory flows were again measured. At this second visit, the FEV1 parameter was measured at 0.50 L/s. […] During the third visit, months after the first visit, the flows were again measured.
Over 12 months, the number of superinfections decreased from 15 to only 4 infections.
(§2) This patient had had 8 lung infections per year prior to treatment. After 6 months of treatment at the daily dose of 400 mg of tritoqualine, the FEV1 parameter was measured again during a second consultation. The FEV1 parameter measured during this consultation went from 0.45 L/s to 0.50 L/s, or an improvement of 11.11% of the ventilatory flows.
During the 12-month treatment with tritoqualine (400 mg daily), the patient benefited from a significant reduction in pulmonary infections, from 8 initially to only 3 infections after 12 months of treatment.
(§3) Before therapy with tritoqualine, the FEV1 of the patient was measured at 0.70 L/s, or 63.64% of the normal expected value (based on age, sex, and size). This patient had had 12 pulmonary infections per year before the treatment. After a 6-month treatment with a daily dose of 300 mg of tritoqualine, the FEV1 parameter was measured at their second consultation at 1.0 L/s. This represents an improvement of 42.86% over the initial visit. (100*([…])/0.70). After 12 months of treatment, the FEV1 parameter measured during the third consultation was 1.20 L/s or 71.43% improvement compared to the initial visit. (100*(1.20-0.70)/0.70).
These decreased from 12 to 3 infections in one single year.

cystic fibrosis patient [3] = test: FEV1 (Forced Expiratory Volume in 1 second) in patients with cystic fibrosis treated with tritoqualine; assay type: in vivo, human
Experimental: During the initial consultation, a treatment based on tritoqualine was started at a daily dose of 200 mg.
Before therapy with tritoqualine, the FEV1 (Forced Expiratory Volume in 1 second) of this young patient was 0.39 L/s or 55.71% of the normal expected value (based on age, sex, and size). The flow rate was measured with a Jaeger® MasterScreen® Body plethysmography apparatus.
as §1
Before therapy with tritoqualine, the FEV1 of the patient was measured at 0.45 L/s or only 69.23% of the normal expected value (based on age, sex, and size).
as §2
A child with cystic fibrosis was treated during their first consultation with a dose of 300 mg of tritoqualine.
as §3

histidine decarboxylase = target: T2, histidine decarboxylase (Homo sapiens, UniProt P19113); conditions: background statement; cited from earlier work
T2 sequence (P19113 1-662): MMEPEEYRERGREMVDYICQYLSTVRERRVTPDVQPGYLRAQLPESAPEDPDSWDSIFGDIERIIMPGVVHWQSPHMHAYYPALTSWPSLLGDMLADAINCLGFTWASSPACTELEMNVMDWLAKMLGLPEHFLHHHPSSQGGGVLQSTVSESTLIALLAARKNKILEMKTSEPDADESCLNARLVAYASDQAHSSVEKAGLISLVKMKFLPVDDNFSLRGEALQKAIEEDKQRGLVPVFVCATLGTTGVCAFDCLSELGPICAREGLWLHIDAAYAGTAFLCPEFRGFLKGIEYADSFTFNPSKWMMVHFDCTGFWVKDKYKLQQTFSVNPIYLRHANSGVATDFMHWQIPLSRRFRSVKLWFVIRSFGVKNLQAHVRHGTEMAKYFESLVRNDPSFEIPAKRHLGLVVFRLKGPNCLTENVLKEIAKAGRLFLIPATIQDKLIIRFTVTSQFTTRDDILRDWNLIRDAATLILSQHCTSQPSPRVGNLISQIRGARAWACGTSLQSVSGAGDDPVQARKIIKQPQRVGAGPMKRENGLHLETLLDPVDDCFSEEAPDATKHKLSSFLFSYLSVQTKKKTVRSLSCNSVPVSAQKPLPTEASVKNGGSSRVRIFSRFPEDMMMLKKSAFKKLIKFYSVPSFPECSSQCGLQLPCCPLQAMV

T1 sequence (Q9H3N8 whole entry, species assumed): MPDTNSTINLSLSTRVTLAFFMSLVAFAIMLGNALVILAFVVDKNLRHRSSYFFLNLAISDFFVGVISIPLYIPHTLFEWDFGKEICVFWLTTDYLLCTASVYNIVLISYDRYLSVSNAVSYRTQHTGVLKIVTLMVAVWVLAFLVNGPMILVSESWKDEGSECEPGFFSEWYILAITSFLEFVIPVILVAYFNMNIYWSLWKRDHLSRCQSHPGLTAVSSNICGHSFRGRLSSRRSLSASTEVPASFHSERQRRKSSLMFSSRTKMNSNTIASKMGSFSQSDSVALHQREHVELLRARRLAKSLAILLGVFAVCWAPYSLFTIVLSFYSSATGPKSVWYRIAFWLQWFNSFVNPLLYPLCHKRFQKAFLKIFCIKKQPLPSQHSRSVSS

**Q.** For NC(=NCc1ccc(Cl)cc1)SCCCc1cnc[nH]1 [Clobenpropit], which “activity on CFU proliferation when using an anti H4” value (histamine H4 receptor) is on record?
**A.** The value was “greatly reduced”.

**Q.** For CC(C)(C)c1cc(C(C)(C)C)c(NC(=O)c2c[nH]c3ccccc3c2=O)cc1O [Kalydeco], which “improvement in FEV1” value (cystic fibrosis patients) is on record?
**A.** Its value is 10%.

**Q.** Which results are given for CCOc1c(N)c2c(c(OCC)c1OCC)C(C1c3c(cc4c(c3OC)OCO4)CCN1C)OC2=O (centres unmarked) [tritoqualine, 7-Amino-4,5,6-triethoxy-3-(5,6,7,8-tetrahydro-4-methoxy-6-methyl-1,3-dioxolo[4,5-g]isoquinolin-5-yl) phthalide]?
**A.** sensitivity to light [1]: very sensitive to light; proliferation of CFU rich in H4 receptor (histamine H4 receptor; FIG. 4): capable of inhibiting the proliferation; activity on CFU proliferation when using an anti H4 (histamine H4 receptor): greatly reduced; number of superinfections (cystic fibrosis patient [2]; Example 1: child, 200 mg/day, over 12 months, 15 per year prior to treatment): 4 infections; reduction factor of number of infections (cystic fibrosis patient [2]; Example 1: summary statement): divided by three; number of pulmonary infections (cystic fibrosis patient [2]; Example 2: adult, 400 mg/day, after 12 months, 8 initially): 3 infections; number of pulmonary infections (cystic fibrosis patient [2]; Example 3: child, 300 mg/day, in one year, 12 before treatment): 3 infections; increase of FEV1 compared to initial flows (cystic fibrosis patient [3]; Example 1: child, 200 mg/day, after 6 months): 28.2%; FEV1 (cystic fibrosis patient [3]; Example 1: child, 200 mg/day, after 6 months (second visit), before therapy 0.39 L/s): 0.50 L/s; improvement of FEV1 compared to initial rates (cystic fibrosis patient [3]; Example 1: child, 200 mg/day, third visit): 58.7%; FEV1 (cystic fibrosis patient [3]; Example 1: child, 200 mg/day, third visit, before therapy 0.39 L/s): 0.62 L/s; increase of ventilatory flows (cystic fibrosis patient [3]; Example 1: summary statement): more than 50%; improvement of ventilatory flows (FEV1) (cystic fibrosis patient [3]; Example 2: adult, 400 mg/day, after 6 months vs baseline): 11.11%; FEV1 (cystic fibrosis patient [3]; Example 2: adult, 400 mg/day, after 6 months, before therapy 0.45 L/s): 0.50 L/s; increase in FEV1 compared to the initial visit (cystic fibrosis patient [3]; Example 2: adult, 400 mg/day, after 12 months): 28.89%; FEV1 (cystic fibrosis patient [3]; Example 2: adult, 400 mg/day, after 12 months, before therapy 0.45 L/s): 0.58 L/s; improvement of FEV1 over the initial visit (cystic fibrosis patient [3]; Example 3: child, 300 mg/day, after 6 months): 42.86%; FEV1 (cystic fibrosis patient [3]; Example 3: child, 300 mg/day, after 6 months, before therapy 0.70 L/s): 1.0 L/s; improvement of FEV1 compared to the initial visit (cystic fibrosis patient [3]; Example 3: child, 300 mg/day, after 12 months): 71.43%; FEV1 (cystic fibrosis patient [3]; Example 3: child, 300 mg/day, after 12 months, before therapy 0.70 L/s): 1.20 L/s; inhibitory action on histidine decarboxylase (histidine decarboxylase): very low
